Common to all, as to assay: growth of human tumour cells (NCI), 48 h
For assay [1], the system named is CCRF-CEM leukemia.
In assay [2] the test system is COLO 205 colon.
The test system of assay [3] is MDA-MB-231 breast.
The subject of assay [4] is CAKI-1 renal.
For assay [5], the system named is MDA-MB-435.
Assay [6] concerns U251 CNS.
Assay [7] relates to MCF7 breast.
In assay [8] the test system is OVCAR-5 ovarian.
For assay [9], the system named is PC-3 prostate.
Assay [10] concerns BT-549 breast.
Assay [11] concerns HCT-15 colon.
Assay [12] relates to MOLT-4 leukemia.
Assay [13] has as its system OVCAR-8 ovarian.
Assay [14] deals with UACC-257 melanoma.
Assay [15] has as its system K-562 leukemia.
In assay [16] the test system is T-47D breast.
For assay [17], the system named is SNB-75 CNS.
Assay [18] deals with OVCAR-4 ovarian.
Assay [19] relates to NCI-H23 lung.

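Cells were grown in 96-well plates and exposed to each compound for 48 hours at five concentrations; endpoints were interpolated linearly between bracketing concentrations, or set to the highest concentration if not reached. TGI marks complete inhibition of growth.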

As to `Cc1ccc(NC(=O)c2cc(S(=O)(=O)N3CCNNC3=O)c(S)cc2Cl)cc1`, the TGI in assay [1], in assay [2], in assay [3], in assay [4], in [5] and in [6] was over 100 µM throughout. The TGI in assay [7] is over 100 µM; in [8] it was over 100 µM; in [9], over 100 µM; in assay [10], 87.6 µM; in [11], over 100 µM; in assay [12], over 100 µM. For the same compound, the TGI in assay [13], in assay [14], in assay [15], in assay [16], in [17] and in assay [18] was over 100 µM in each case.

Regarding `COc1cc(/C=C2\N=C(c3ccccc3)N(/N=C/c3cc4cc(C)ccc4nc3Cl)C2=O)ccc1O`, the TGI is 36 µM in [1]; over 100 µM in assay [2]; over 100 µM in assay [3]; over 100 µM in [4]; 36.7 µM in assay [5]; over 100 µM in assay [6]. Also, the TGI in assay [7] was 63.1 µM; in [8] it was over 100 µM; in assay [9], 50.1 µM; in assay [10] it was over 100 µM; in [11], over 100 µM; in assay [12], 47.8 µM. In addition, the TGI is over 100 µM in assay [13]; over 100 µM in assay [14]; over 100 µM in [15]; over 100 µM in assay [16]; 83.9 µM in [17]; over 100 µM in assay [18].

Regarding `COC(=O)/C=C1/OC(c2ccccc2)=CC1=O`, the TGI was over 61.2 µM in [1]; 29.5 µM in assay [2]; 31.4 µM in assay [3]; 33.9 µM in [4]; 35.5 µM in assay [5]; 32.1 µM in assay [6]. Also, the TGI worked out at 25.4 µM in assay [7]; 36.9 µM in [8]; 40.2 µM in assay [9]; 32 µM in assay [10]; 30.1 µM in assay [11]; 17.3 µM in [12]. Further, the TGI was 35.8 µM in assay [13]; over 52.7 µM in assay [14]; 44.6 µM in [15]; 42.9 µM in [19]; 49.9 µM in assay [16]; 30.9 µM in [17]. The compound further displayed a TGI in [18] of 31.2 µM.

For the compound `COc1ccc(N=C/C=C/C(=C/COC(C)=O)OC(C)=O)cc1`, the TGI was over 100 µM in assay [1]; 73.5 µM in assay [2]; 65.3 µM in assay [3]; 63.8 µM in assay [4]; over 100 µM in assay [5]; 72.3 µM in assay [6]. Besides, the TGI in [7], in assay [8], in assay [9], in assay [10], in [11] and in [12] was over 100 µM in each case. The TGI in assay [13] was over 100 µM; in [14], 87.2 µM; in assay [15] it was 19.2 µM; in assay [19] it was 91.7 µM; in assay [16] it was over 100 µM; in [17], over 100 µM. Also, the TGI in assay [18] stood at 93.8 µM.

Take `Nc1nc(Cl)cc(NCC2(CO)CC(O)C2)n1` (stereo not drawn): the TGI in assay [1], in assay [2], in assay [3], in assay [4], in assay [5] and in assay [6] was over 100 µM throughout. The TGI in assay [7], in assay [8], in [9], in assay [10], in assay [11] and in [12] was over 100 µM in each case. Further, the TGI in assay [13], in assay [14], in assay [15], in [19], in [16] and in assay [17] was over 100 µM throughout. The same compound gave a TGI in assay [18] of over 100 µM.

Consider `CCCNc1c(Cl)cc(Cl)c2[nH]c3ccccc3c(=O)c12`, for which the TGI in assay [1], in assay [2], in assay [3], in assay [4], in assay [5] and in assay [6] was over 100 µM each time. For the same compound, the TGI in assay [7], in assay [8], in assay [9], in [10], in [11] and in assay [12] was over 100 µM in each case. Moreover, the TGI in assay [13], in assay [14], in assay [15], in assay [19], in assay [16] and in assay [17] was over 100 µM in each case. Moreover, the TGI in assay [18] was over 100 µM.

With `CC(=O)NC1C(OCc2ccccc2)OC(CO)C(O)C1OC(C)C(=O)NC(C(=O)NC(CCC(=O)Nc1ccc2c(c1)CN1C(=O)c3ccccc3C1=N2)C(N)=O)C(C)C` (stereo not drawn), the TGI in assay [1], in [2], in assay [3], in [4], in [5] and in assay [6] was over 100 µM each time. For the same compound, the TGI in assay [7], in assay [8], in assay [9], in assay [10], in [11] and in [12] was over 100 µM in each case. For the same compound, the TGI in [13], in assay [14], in [15], in assay [19], in assay [16] and in assay [17] was over 100 µM in each case. The TGI in [18] was over 100 µM.

Take `CN(N=O)C(N)=NC(=O)c1ccccc1`: the TGI in [1], in assay [2], in assay [3], in [4], in assay [5] and in assay [6] was over 100 µM each time. Also, the TGI in assay [7], in [8], in [9], in [10], in assay [11] and in assay [12] was over 100 µM in each case. Moreover, the TGI in assay [13], in assay [14], in assay [15], in [19], in [16] and in assay [17] was over 100 µM throughout. The TGI in [18] was over 100 µM.

On to `O=C(CCl)Nc1ccc(-c2nc3ccccc3s2)cc1`, for which the TGI in assay [1] was over 36.7 µM; in [2], 3.82 µM; in assay [3] it was 16.8 µM; in assay [4], 3.38 µM; in assay [5], 12.2 µM; in [6], 3.15 µM. Besides, the TGI in assay [7] amounted to 2.39 µM; in assay [8] it was 17.1 µM; in assay [9], 6.71 µM; in assay [10], 2.95 µM; in assay [11] it was 6.65 µM; in assay [12] it was 12.8 µM. The TGI in [13] amounted to 9.66 µM; in assay [14], 11.6 µM; in assay [15], 4.56 µM; in assay [19], 10.2 µM; in assay [16], 5.59 µM; in assay [17] it was 11 µM. In assay [18], this compound yielded a TGI of 15.2 µM.

With `OCC1OC(NC(=S)NCSCCC(F)(F)C(F)(F)C(F)(F)C(F)(F)C(F)(F)C(F)(F)F)C(O)C(O)C1O` (stereo not drawn), the TGI in assay [1] was 91.3 µM; in assay [2] it was over 100 µM; in [3], over 100 µM; in [4] it was over 100 µM; in assay [5] it was over 100 µM; in [6], 46.6 µM. Besides, the TGI in assay [7], in assay [8], in [9], in [10], in [11] and in assay [12] was over 100 µM in each case. In addition, the TGI in [14] was over 100 µM; in assay [15], 56.4 µM; in assay [19], over 100 µM; in assay [16], over 100 µM; in assay [17], over 100 µM; in assay [18], over 100 µM.

Consider `O=C1C(c2c(O)n(-c3ccccc3)c3ccccc23)=Nc2ccccc21`, for which the TGI in assay [1] is over 100 µM; in assay [2] it was 66.3 µM; in [3] it was 81.5 µM; in assay [4], over 100 µM; in assay [5], over 100 µM; in assay [6] it was over 100 µM. In addition, the TGI was 37 µM in assay [7]; over 100 µM in assay [8]; 80.9 µM in [9]; over 100 µM in assay [10]; over 100 µM in [11]; over 100 µM in assay [12]. In addition, the TGI in [13] was over 100 µM; in assay [14], over 100 µM; in assay [15], over 100 µM; in assay [19], over 100 µM; in assay [16] it was 71.9 µM; in [17], 40.4 µM. In assay [18], this compound gave a TGI of over 100 µM.

Take `COC(=O)C(NC(=O)C12CCC(C)(C(=O)O1)C2(C)C)c1cc(C(C)(C)C)c(O)c(C(C)(C)C)c1` (stereo not drawn): the TGI in assay [1], in assay [2], in [3], in assay [4], in [5] and in [6] was over 100 µM each time. Moreover, the TGI in assay [7], in assay [8], in [9], in assay [10], in assay [11] and in assay [12] was over 100 µM throughout. The TGI in assay [13], in assay [15], in [19], in assay [16], in assay [17] and in [18] was over 100 µM in each case.

For the compound `COc1ccc2c(c1)CC[C@@H]1C2CC[C@]2(C)C(=O)N(C)C(=O)CC12` (stereo partly drawn), the TGI in assay [1], in assay [2], in assay [3], in assay [4], in assay [5] and in assay [6] was over 100 µM throughout. The TGI in assay [7], in assay [8], in [9], in [10], in assay [12] and in [13] was over 100 µM in each case. Also, the TGI in assay [14], in assay [15], in [19], in [16], in [17] and in assay [18] was over 100 µM each time.

Regarding `N#Cc1c(-c2ccccc2)cc(Nc2ccc(F)cc2)n2c1nc1ccccc12`, the TGI was 2.97 µM in assay [2]; 65.2 µM in assay [3]; over 100 µM in assay [4]; over 100 µM in [5]; 8.11 µM in [6]; 5.97 µM in assay [7]. Moreover, the TGI is over 29.2 µM in assay [8]; 4.97 µM in assay [9]; over 25.2 µM in assay [10]; over 30.4 µM in assay [11]; over 100 µM in assay [12]; over 32.7 µM in assay [13]. In addition, the TGI in assay [14] was 8.78 µM; in assay [15] it was over 100 µM; in [19], over 27.4 µM; in assay [16] it was 19 µM; in [17] it was 6.76 µM; in [18], over 100 µM.

`CC1C2CC(CC2=O)C1(C)C` (stereo not drawn): the TGI in assay [1], in assay [2], in assay [3], in [4], in assay [5] and in assay [6] was over 100 µM in each case. Further, the TGI in assay [7], in assay [8], in assay [9], in assay [10], in [12] and in assay [13] was over 100 µM each time. For the same compound, the TGI in assay [14], in assay [15], in assay [19], in assay [16], in [17] and in [18] was over 100 µM each time.
